Experiment in all cases: Cell experiment, cell survival rate
Common to all, as to type: cell-based

In assay [1] the test system is SGC-7901 stomach cancer cells. The note with it: 48 h. As to the method:
(§1) Cells growing in a log phase are collected, the concentration of the cell suspension is adjusted, 100 μL of cell suspension is added to each well and the cells are plated (edge wells are filled with sterile PBS) at a density of 1×10^3-10^4 cells/well. The cells are incubated for 24 hours at 37° C. under the condition of 5% CO2, a nanocarbon-iron solution having a concentration gradient (nanocarbon content: 125, 62.5, 15.63 and 3.91 μg/mL; and ferric ion content: 13.65, 6.83, 1.71 and 0.43 μg/mL) is added, and three sub-wells are set. Then the cells are incubated for 48 hours at 37° C. under the condition of 5% CO2. 10 μL of CCK8 solution is added to each well and then the cells are continuously incubated for 2 hours. The absorbance of each well is measured at OD=450 nm with the microplate reader. In addition, a negative control group, nanocarbon control groups having the same concentration and iron preparation control groups having the same concentration are set.
as §1, with “and 1” for “100”, “of a 6-well plate” for “and the cells are plated (edge wells are filled with sterile PBS)”, “3×10^4” for “1×10^3-10^4”, “1.71,” for “1.71 and”, “The” for “10 μL of CCK8 solution is added to each well and then the”, “trypsinized and counted.” for “continuously incubated for 2 hours. The absorbance of each well is measured at OD=450 nm with the microplate reader.”

The subject of assay [2] is MDA-MB-231 breast cancer cells. The note with it: 48 h. Here is the method: as §1
as §1, with “and 1” for “100”, “of a 6-well plate” for “and the cells are plated (edge wells are filled with sterile PBS)”, “3×10^4” for “1×10^3-10^4”, “1.71,” for “1.71 and”, “The” for “10 μL of CCK8 solution is added to each well and then the”, “trypsinized and counted.” for “continuously incubated for 2 hours. The absorbance of each well is measured at OD=450 nm with the microplate reader.”

Assay [3] relates to TPC-1 thyroid cancer cells. The note with it: 48 h. Here is the method:
as §1
as §1, with “and 1” for “100”, “of a 6-well plate” for “and the cells are plated (edge wells are filled with sterile PBS)”, “3×10^4” for “1×10^3-10^4”, “1.71,” for “1.71 and”, “The” for “10 μL of CCK8 solution is added to each well and then the”, “trypsinized and counted.” for “continuously incubated for 2 hours. The absorbance of each well is measured at OD=450 nm with the microplate reader.”

The test system of assay [4] is SMMC7721 liver cancer cells. The note with it: SMMC-7721, 48 h. Here is the method: as §1
as §1, with “and 1” for “100”, “of a 6-well plate” for “and the cells are plated (edge wells are filled with sterile PBS)”, “3×10^4” for “1×10^3-10^4”, “1.71,” for “1.71 and”, “The” for “10 μL of CCK8 solution is added to each well and then the”, “trypsinized and counted.” for “continuously incubated for 2 hours. The absorbance of each well is measured at OD=450 nm with the microplate reader.”

For assay [5], the system named is A549 lung cancer cells. The note with it: 48 h. As to the method: as §1
as §1, with “and 1” for “100”, “of a 6-well plate” for “and the cells are plated (edge wells are filled with sterile PBS)”, “3×10^4” for “1×10^3-10^4”, “1.71,” for “1.71 and”, “The” for “10 μL of CCK8 solution is added to each well and then the”, “trypsinized and counted.” for “continuously incubated for 2 hours. The absorbance of each well is measured at OD=450 nm with the microplate reader.”

In assay [6] the test system is Hela cervical cancer cells. The note with it: 48 h. As to the method: as §1
as §1, with “and 1” for “100”, “of a 6-well plate” for “and the cells are plated (edge wells are filled with sterile PBS)”, “3×10^4” for “1×10^3-10^4”, “1.71,” for “1.71 and”, “The” for “10 μL of CCK8 solution is added to each well and then the”, “trypsinized and counted.” for “continuously incubated for 2 hours. The absorbance of each well is measured at OD=450 nm with the microplate reader.”

Where [7] appears, read: iron preparation alone 0.43 μg/mL.
[8] abbreviates: iron preparation alone 1.71 μg/mL.
The mark [9] stands for this setting: iron preparation alone 6.83 μg/mL.
[10] abbreviates: iron preparation alone 13.65 μg/mL.

The source of these data is patent US11235976B2, “Nanocarbon-iron composite system as well as composition, preparation method and use thereof” (Chongqing Lummy Pharmaceutical Co., LTD, priority 2017, dated 2022).

Take ferrous sulfate: the “Cell Survival Rate” value came to 100% in assay [1] (setting [7]); 93.78% in assay [1] (setting [8]); 98.42% in assay [1] (setting [9]); 100% in assay [1] (setting [10]); 100% in assay [2] (setting [7]); 100% in assay [2] (setting [8]). The “Cell Survival Rate” value in assay [2] (setting [9]) amounted to 100%; in assay [2] (setting [10]) it was 100%; in assay [3] (setting [7]) it was 100%; in assay [3] (setting [8]) it was 100%; in assay [3] (setting [9]), 98.75%; in assay [3] (setting [10]), 93.64%. Moreover, the “Cell Survival Rate” value in assay [4] (setting [7]) was 100%; in assay [4] (setting [8]), 100%; in assay [4] (setting [9]), 100%; in assay [4] (setting [10]), 97.46%; in assay [5] (setting [7]) it was 100%; in assay [5] (setting [8]), 94.18%. In addition, the “Cell Survival Rate” value in assay [5] (setting [9]) stood at 95.12%; in assay [5] (setting [10]), 100%; in assay [6] (setting [7]), 100%; in assay [6] (setting [8]) it was 100%; in assay [6] (setting [9]) it was 100%; in assay [6] (setting [10]), 93.99%.
